± gives the expanded uncertainty stated by the source.

The conditions of the series: Liquid, Closed cell (Static) method.

On to `FC(F)(F)I` [trifluoroiodomethane], for which the “vapor or sublimation pressure” value by setting is: (243.15 K) 71.7 ± 1 kPa; (253.15 K) 109 ± 1 kPa; (263.15 K) 160.4 ± 1 kPa; (273.15 K) 228.2 ± 1.1 kPa; (283.15 K) 316.3 ± 1.1 kPa.

As to `CC(C)C` [2-methylpropane], the “vapor or sublimation pressure” value was 46.7 ± 1 kPa (243.15 K); 72.6 ± 1 kPa (253.15 K); 108.7 ± 1 kPa (263.15 K); 157.4 ± 1 kPa (273.15 K); 221 ± 1.1 kPa (283.15 K).

Turning to `F/C=C/C(F)(F)F` [trans-1,3,3,3-tetrafluoropropene], the “vapor or sublimation pressure” value (243.15 K) is on record as 61 ± 1 kPa; the “vapor or sublimation pressure” value (253.15 K) was determined as 97 ± 1 kPa; the “vapor or sublimation pressure” value (263.15 K) is recorded as 147.7 ± 1 kPa; the “vapor or sublimation pressure” value (273.15 K) is reported as 216.4 ± 1.1 kPa; the “vapor or sublimation pressure” value (283.15 K) is on record as 308.3 ± 1.1 kPa.

For the origin of these results see the NIST ThermoML archive (doi:10.1021/acs.jced.7b00964).
